Laboratory results taken from PubChem BioAssay (NCI).
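The concentration for 50% growth inhibition is given as GI50. TGI: total growth inhibition.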

What was measured:
Assay in all cases: growth of human tumour cells (NCI), 384-well format
SK-MEL-5 melanoma = tested on: SK-MEL-5 melanoma
HL-60(TB) leukemia = tested on: HL-60(TB) leukemia
RPMI-8226 leukemia = tested on: RPMI-8226 leukemia
TK-10 renal = tested on: TK-10 renal
OVCAR-3 ovarian = tested on: OVCAR-3 ovarian
HCT-116 colon = tested on: HCT-116 colon
MDA-MB-468 breast = tested on: MDA-MB-468 breast
LOX IMVI melanoma = tested on: LOX IMVI melanoma
NCI-H322M lung = tested on: NCI-H322M lung
SN12C renal = tested on: SN12C renal
HCT-15 colon = tested on: HCT-15 colon
A549 NSCLC = tested on: A549 NSCLC
M14 melanoma = tested on: M14 melanoma
OVCAR-5 ovarian = tested on: OVCAR-5 ovarian
HOP-62 NSCLC = tested on: HOP-62 NSCLC
U251 glioblastoma = tested on: U251 glioblastoma
T-47D breast = tested on: T-47D breast
RXF 393 renal = tested on: RXF 393 renal
NCI-H522 lung = tested on: NCI-H522 lung
HCC-2998 colon = tested on: HCC-2998 colon
KM12 colon = tested on: KM12 colon
SF-539 CNS = tested on: SF-539 CNS
IGROV1 ovarian = tested on: IGROV1 ovarian
BT-549 breast = tested on: BT-549 breast
CAKI-1 renal = tested on: CAKI-1 renal
SR leukemia = tested on: SR leukemia
MOLT-4 leukemia = tested on: MOLT-4 leukemia
HOP-92 NSCLC = tested on: HOP-92 NSCLC
SK-MEL-28 melanoma = tested on: SK-MEL-28 melanoma
ACHN renal = tested on: ACHN renal
SF-268 CNS = tested on: SF-268 CNS
MDA-MB-435 melanoma = tested on: MDA-MB-435 melanoma
A498 renal = tested on: A498 renal
COLO 205 colon = tested on: COLO 205 colon
HT29 colon = tested on: HT29 colon
UACC-62 melanoma = tested on: UACC-62 melanoma
MCF7 breast = tested on: MCF7 breast
PC-3 prostate = tested on: PC-3 prostate
MDA-MB-231 breast = tested on: MDA-MB-231 breast
MALME-3M melanoma = tested on: MALME-3M melanoma
NCI-H23 lung = tested on: NCI-H23 lung
NCI-H460 NSCLC = tested on: NCI-H460 NSCLC
SNB-75 CNS = tested on: SNB-75 CNS
DU-145 prostate = tested on: DU-145 prostate
EKVX NSCLC = tested on: EKVX NSCLC
SK-OV-3 ovarian = tested on: SK-OV-3 ovarian
OVCAR-4 ovarian = tested on: OVCAR-4 ovarian
UACC-257 melanoma = tested on: UACC-257 melanoma
NCI/ADR-RES ovarian = tested on: NCI/ADR-RES ovarian
HS 578T breast = tested on: HS 578T breast
SNB-19 CNS = tested on: SNB-19 CNS
SF-295 CNS = tested on: SF-295 CNS
NCI-H226 lung = tested on: NCI-H226 lung
OVCAR-8 ovarian = tested on: OVCAR-8 ovarian

Cn1ncc(Cl)c1-c1cc(C(=O)N[C@H](CN)Cc2ccc(F)c(F)c2)oc1Cl
GI50 (SK-MEL-5 melanoma): 1010 nM
TGI (SK-MEL-5 melanoma): 2180 nM
GI50 (HL-60(TB) leukemia): 1260 nM
TGI (HL-60(TB) leukemia): 2550 nM
GI50 (RPMI-8226 leukemia): 1540 nM
TGI (RPMI-8226 leukemia): 2990 nM
GI50 (TK-10 renal): 569 nM
TGI (TK-10 renal): 2900 nM
GI50 (OVCAR-3 ovarian): 2170 nM
TGI (OVCAR-3 ovarian): 14100 nM
GI50 (HCT-116 colon): 2330 nM
TGI (HCT-116 colon): 10500 nM
GI50 (MDA-MB-468 breast): 71.9 nM
TGI (MDA-MB-468 breast): 1790 nM
GI50 (LOX IMVI melanoma): 1940 nM
TGI (LOX IMVI melanoma): 3950 nM
GI50 (NCI-H322M lung): 2340 nM
TGI (NCI-H322M lung): 13900 nM
GI50 (SN12C renal): 1960 nM
TGI (SN12C renal): 11100 nM
GI50 (HCT-15 colon): 702 nM
TGI (HCT-15 colon): 13400 nM
GI50 (A549 NSCLC): 2660 nM
TGI (A549 NSCLC): 13900 nM
GI50 (M14 melanoma): 1490 nM
TGI (M14 melanoma): 2910 nM
GI50 (OVCAR-5 ovarian): 1570 nM
TGI (OVCAR-5 ovarian): 4560 nM
GI50 (HOP-62 NSCLC): 3010 nM
TGI (HOP-62 NSCLC): 10900 nM
GI50 (U251 glioblastoma): 1140 nM
TGI (U251 glioblastoma): 3970 nM
GI50 (T-47D breast): 137 nM
TGI (T-47D breast): 5550 nM
GI50 (RXF 393 renal): 386 nM
TGI (RXF 393 renal): 2180 nM
GI50 (NCI-H522 lung): 2240 nM
TGI (NCI-H522 lung): 7940 nM
GI50 (HCC-2998 colon): 772 nM
TGI (HCC-2998 colon): 2210 nM
GI50 (KM12 colon): 364 nM
TGI (KM12 colon): 2820 nM
GI50 (SF-539 CNS): 79.4 nM
TGI (SF-539 CNS): 1920 nM
GI50 (IGROV1 ovarian): 23.1 nM
TGI (IGROV1 ovarian): 178 nM
GI50 (BT-549 breast): 586 nM
TGI (BT-549 breast): 2160 nM
GI50 (CAKI-1 renal): 2230 nM
TGI (CAKI-1 renal): 12100 nM
GI50 (SR leukemia): 517 nM
TGI (SR leukemia): 1860 nM
GI50 (MOLT-4 leukemia): 60 nM
TGI (MOLT-4 leukemia): 347 nM
GI50 (HOP-92 NSCLC): 2360 nM
TGI (HOP-92 NSCLC): 11200 nM
GI50 (SK-MEL-28 melanoma): 1140 nM
TGI (SK-MEL-28 melanoma): 2450 nM
GI50 (ACHN renal): 2770 nM
TGI (ACHN renal): 14900 nM
GI50 (SF-268 CNS): 4700 nM
TGI (SF-268 CNS): 16900 nM
GI50 (MDA-MB-435 melanoma): 1820 nM
TGI (MDA-MB-435 melanoma): 6670 nM
GI50 (A498 renal): 25.7 nM
TGI (A498 renal): 782 nM
GI50 (COLO 205 colon): 833 nM
TGI (COLO 205 colon): 2710 nM
GI50 (HT29 colon): 1030 nM
TGI (HT29 colon): 7490 nM
GI50 (UACC-62 melanoma): 1060 nM
TGI (UACC-62 melanoma): 2310 nM
GI50 (MCF7 breast): 130 nM
TGI (MCF7 breast): 1800 nM
GI50 (PC-3 prostate): 128 nM
TGI (PC-3 prostate): 2160 nM
GI50 (MDA-MB-231 breast): 7040 nM
TGI (MDA-MB-231 breast): 19900 nM
GI50 (MALME-3M melanoma): 1050 nM
TGI (MALME-3M melanoma): 2240 nM
GI50 (NCI-H23 lung): 2700 nM
TGI (NCI-H23 lung): 11100 nM
GI50 (NCI-H460 NSCLC): 87.6 nM
TGI (NCI-H460 NSCLC): 2180 nM
GI50 (SNB-75 CNS): 211 nM
TGI (SNB-75 CNS): 2290 nM
GI50 (DU-145 prostate): 3720 nM
TGI (DU-145 prostate): 16400 nM
GI50 (EKVX NSCLC): 2070 nM
TGI (EKVX NSCLC): 11000 nM
GI50 (SK-OV-3 ovarian): 431 nM
TGI (SK-OV-3 ovarian): 8200 nM
GI50 (OVCAR-4 ovarian): 6600 nM
TGI (OVCAR-4 ovarian): 19100 nM
GI50 (UACC-257 melanoma): 1050 nM
TGI (UACC-257 melanoma): 2240 nM
GI50 (NCI/ADR-RES ovarian): 4100 nM
TGI (NCI/ADR-RES ovarian): 16300 nM
GI50 (HS 578T breast): 711 nM
TGI (HS 578T breast): 2720 nM
GI50 (SNB-19 CNS): 1480 nM
TGI (SNB-19 CNS): 14900 nM
GI50 (SF-295 CNS): 527 nM
TGI (SF-295 CNS): 2300 nM
GI50 (NCI-H226 lung): 2540 nM
TGI (NCI-H226 lung): 8160 nM
GI50 (OVCAR-8 ovarian): 3310 nM
TGI (OVCAR-8 ovarian): 15600 nM
